Source: patent US20120034193A1, “TREATMENT OF NEUROTROPHIC FACTOR MEDIATED DISORDERS” (priority 2009, published 2012)

Key:
[1] = tested on: phosphorylated CREB (pCREB); experiment: Phosphorylated CREB in CHO cells (immunoblot); format: cell-based, Chinese hamster; conditions: 10 μM, 24 h, control 0.729 ± 0.112
Method: The CHO were incubated with DMSO (0.5%) or sarsasapogenin (10 μM) for 24 h. The cells were then washed with cold PBS, lysed in sodium dodecyl sulfate (SDS) buffer, boiled for 5 min and the protein content measured by the Bradford method. The samples were then separated on SDS polyacrylamide gels and transferred to PVDF (Bio-Rad) membrane. After exposure for 1 h in 5% skimmed milk powder, membranes were incubated overnight at 4° C. in primary antibody: mouse pCREB (Upsdate, 1:1000) and mouse β-actin (Santa Cruz, 1:1000). The membranes were then incubated in peroxidase conjugated secondary antibody (Wuhan Boster Biology Technology, China. 1:2000) for 1 h at room temperature and developed with ECL reagents (Pierce). Membranes were stripped by incubating in 2-mercaptoethanol (100 mM), SDS (2%), Tris HCl (62.5 mM) at pH 6.8 and 50° C. for 30 min Densitometric quantification of immunostaining was performed using Image J analysis system with an image analyzer (Gel Doc 2000, Bio-Rad). The relative amount of immunostaining of each band of pCREB was normalised to the β-actin band run in the same experiment and expressed as arbitrary units.

Acetyl CoA synthetase = experiment: Enzyme activity assay; format: biochemical, Yeast; conditions: sarsasapogenin 100 μM
Method: (§1) The enzyme activity modulation was investigated using the following method: Sarsasapogenin was incubated with each enzyme plus a specific substrate for each enzyme. After the incubation period the reaction was stopped and the reduction of the specific substrate or the increase in a specific product in the absence and presence of sarsasapogenin was measured and the percent inhibition of the reaction in the presence of sarsasapogenin was calculated. The amount of enzyme used, the incubation conditions, the substrate used and the method of quantification varied depending on each specific assay.

[2] = tested on: Glycine, Strychnine-Sensitive; experiment: Binding assay; set-up: species or system Rat; conditions: smilagenin 1 μM
[3] = tested on: Protein Serine/Threonine Kinase, PKC, Non-Selective; experiment: Functional assay; format: biochemical, Rat; conditions: smilagenin 1 μM
Method: as §1
(§2) Using the same methods as described above, the binding of smilagenin (1 μM) to the receptors listed in Table 2 below, and the effect of smilagenin on the activity of the enzymes listed in Table 2 below, were investigated.

GDNF = experiment: Unbound GDNF in the putamen of MPTP-lesioned macaques; format: in vivo, Macaca fascicularis; conditions: smilagenin 20 mg/kg/day p.o., 18 weeks; control 9.52, MPTP 15.33
Method: (§3) Nineteen female cynomolgus monkeys (Macaca fascicularis, 3.0-4.5 kg, 4-6 years old) were acclimatised to the experimental setting and procedures for 3 months and baseline behaviour was assessed in all animals. Fourteen female macaques received MPTP (0.2 mg/kg/day, s.c.) until marked, stable, parkinsonian symptoms developed. Animals (n=7/group) were randomly assigned to two groups; smilagenin (20 mg/kg/day, p.o.) or vehicle control (HPMC, 0.5% w/v containing Tween 80, 0.2% v/v).
(§4) Assessments of parkinsonian disability were made after MPTP administration and following 18 weeks of smilagenin or vehicle administration. Parkinsonian disability was evaluated by post hoc analysis of DVD-recordings by a neurologist blinded to the treatment. At the end of the study the brains were removed and the levels of unbound GDNF and BDNF in the putamen were measured using Multiplex ELISA/Aushon assays. The MPTP treated macaques used in this experiment thus provide an accepted model for Parkinson's disease and similar motor-sensory neurodegenerative conditions.

BDNF [4] = experiment: Unbound BDNF in the putamen of MPTP-lesioned macaques; format: in vivo, Macaca fascicularis; conditions: smilagenin 20 mg/kg/day p.o., 18 weeks; control 257.58, MPTP 388.73
Method: as §3, §4

BDNF [5] = experiment: BDNF protein in culture medium of rat cortical neurones under basal conditions; format: cell-based; conditions: 10 μM, day 8 to day 12, basal culture; control 3.66 ± 0.05
Method: Rat cortical neurones were cultured by modification of a method previously described (Eckenstein and Sofroniew, Journal of Neuroscience, 1983, 3, pp. 2286-2291). On day 8, the culture medium was changed to a medium containing vehicle (DMSO, 0.5%) or smilagenin (10 μM). On day 12 the concentration of BDNF in the culture medium, was measured.

BDNF [6] = experiment: Striatal BDNF in MPTP-lesioned mice (ELISA); format: in vivo, C57b1/6 RJ mice; conditions: smilagenin 10 mg/kg/day oral, 60 days, striatum
Method: Seven-week old male C57b1/6 RJ mice (C57 mice) received daily injections 1-methyl-4-phenyl-1,2,3,6-tetrahydropyridine (MPTP, 25 mg/kg/day, i.p., for 5 consecutive days) and oral administration of smilagenin (10 mg/kg/day) or vehicle (hydroxylpropylmethylcellulose, HPMC 0.5% w/v containing tween-80 0.2% v/v) for 60 days after which time their brains were removed for quantification of striatal levels of GDNF and BDNF using an ELISA and of dopamine transporter (DAT) levels using [I^125]-RTI binding. DAT is a marker for neuronal damage to dopaminergic neurones.

[7] = tested on: Vascular Endothelial Growth Factor (VEGF); experiment: Binding assay; set-up: species or system Human; conditions: smilagenin 1 μM
Method: (§5) The receptor binding was investigated using the following method: Sarsasapogenin was incubated with tissue or cell homogenate that expressed the receptor of interest and a known concentration a radiolabelled compound with affinity for the receptor of interest. After the incubation period the non-bound radiolabelled compound was removed and the amount of specific binding was quantified. The amount of specific binding in the presence and absence of sarsasapogenin were compared and the percent inhibition of the binding of the radiolabelled compound by sarsasapogenin was calculated. The source of the receptor, the incubation conditions, the radiolabelled compound used varied depending on each specific assay.
as §2

Nicotinic Acetylcholine = experiment: Binding assay; set-up: species or system Human; conditions: smilagenin 1 μM
Method: as §5, §2

In the case of `C[C@H]1CC[C@@]2(OC1)O[C@H]1C[C@H]3[C@@H]4CC[C@@H]5C[C@@H](O)CC[C@]5(C)[C@H]4CC[C@]3(C)[C@H]1[C@@H]2C` [Sarsasapogenin, sarsasapogenin], the “Phosphorylated CREB (Arbitary units)” value [1] is reported as 1.342 ± 0.084^++ Arbitary units and the “Effect (%)” value (Acetyl CoA synthetase) is reported as “NS (NS = No significant response. Significance was taken as ≧30% stimulation or inhibition)”.
`C[C@@H]1CC[C@@]2(OC1)O[C@H]1C[C@H]3[C@@H]4CC[C@@H]5C[C@@H](O)CC[C@]5(C)[C@H]4CC[C@]3(C)[C@H]1[C@@H]2C` [Smilagenin, smilagenin] was tested, and the “Effect (%)” value [2] was “NS (NS = No significant response. Significance was taken as ≧30% stimulation or inhibition)”, the “Effect (%)” value [3] was “NS (NS = No significant response. Significance was taken as ≧30% stimulation or inhibition)” and the “Mean ± s.e.mean of unbound GDNF level in the putamen (pg/mg protein)” value (GDNF) was 5.09 ± 1.35 pg/mg protein. The “Mean ± s.e.mean of unbound BDNF level in the putamen (pg/mg protein)” value (BDNF [4]) was 208.27 ± 36.58 pg/mg protein, the “BDNF concentration” value (BDNF [5]) was 3.67 ± 0.05 pg/mL and the “BDNF (% increase above MPTP mice)” value (BDNF [6]) was 164 ± 53 %. For the same compound, the “BDNF (pg/mg tissue)” value (BDNF [6]) was 46.91 ± 9.97 pg/mg tissue, the “Effect (%)” value [7] was “NS (NS = No significant response. Significance was taken as ≧30% stimulation or inhibition)” and the “Effect (%)” value (Nicotinic Acetylcholine) was “NS (NS = No significant response. Significance was taken as ≧30% stimulation or inhibition)”.
